The subject of one assay is Jurkat cells. The assay is described as follows: IL-2 release Jurkat assay (anti-CD3/anti-CD28 stimulation, IL-2 ELISA). It counts as cell-based, human. To be noted: activation with 400 ng/mL aCD3 + 400 ng/mL aCD28, 24 hours. Background: In an ELISA, binding on a coated surface is turned into a signal by an enzyme label.
For another assay, the target named is T1, recombinant HPK1 protein (Homo sapiens, UniProt Q92918).
T1 construct: purchased Promega V6398
T1 sequence (Q92918 1-346 limits assumed): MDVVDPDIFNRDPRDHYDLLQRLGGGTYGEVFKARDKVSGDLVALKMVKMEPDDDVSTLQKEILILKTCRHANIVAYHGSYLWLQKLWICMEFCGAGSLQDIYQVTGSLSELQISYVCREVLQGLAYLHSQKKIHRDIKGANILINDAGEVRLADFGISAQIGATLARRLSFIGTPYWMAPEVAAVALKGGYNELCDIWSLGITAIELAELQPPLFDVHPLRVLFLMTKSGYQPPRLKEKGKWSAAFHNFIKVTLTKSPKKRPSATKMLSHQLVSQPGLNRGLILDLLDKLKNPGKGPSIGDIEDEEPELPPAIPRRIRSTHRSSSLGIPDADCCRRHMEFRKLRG
As to the kind of experiment: Primary assay of HPK1 enzymatic activity inhibition (ADP-Glo luminescence). The assay is classed as biochemical. To be noted: recombinant HPK1, MBP substrate, 1 hour at room temperature.

Setting [1] is: Table D: Jurkat, 6 μM of tested compounds, stimulated vehicle = B.
Where [2] appears, read: Table B: Jurkat, 1.5 μM of tested compounds.

pIC50: −log10 of the molar value.

The values that follow come from patent US20240270699A1, “COMPOUNDS HAVING N-ARYLPYRIMIDIN-2-AMINE DERIVATIVES AS THERAPEUTIC AGENTS” (Lomond Therapeutics, Inc., priority 2021, published 2024).

Regarding `CCOC(=O)c1cnc(Nc2ccc(C(=O)N(C)C)c(C)c2)nc1N[C@H](CO)c1ccccc1` [Compound 125, Ethyl 2-[4-(dimethylcarbamoyl)-3-methyl-anilino]-4-[[(1S)-2-hydroxy-1-phenyl-ethyl]amino]pyrimidine-5-carboxylate], in the assay with Jurkat cells (setting [1]), the “IL-2, pg/mL stimulated” value is recorded as “D (150 pg/mL≤IL-2)”. Further, at recombinant HPK1 protein, the pIC50 (in general, −log10 of the IC50, conventionally taken in molar units) was 6.30 to 6.70.

For the compound `Cc1cc(Nc2ncc(C(=O)NC3CCCC3)c(N[C@H](CO)c3ccccc3)n2)ccc1S(C)(=O)=O` [Compound 434, N-cyclopentyl-4-{[(1S)-2-hydroxy-1-phenylethyl]amino}-2-{[3-methyl-4-(methylsulfonyl)phenyl]amino}pyrimidine-5-carboxamide], in the assay with Jurkat cells (setting [2]), the “IL-2, pg/mL stimulated” value is “B (5.0 pg/mL≤IL-2<25.0 pg/mL)”. Besides, at recombinant HPK1 protein, the pIC50 is 6.30 to 6.70.

As for `COc1cccc([C@@H](CO)Nc2nc(Nc3ccc4c(c3)CCNC4=O)ncc2-c2nc(C)no2)c1` [Compound 575, 6-[[4-[[(1S)-2-hydroxy-1-(3-methoxyphenyl)ethyl]amino]-5-(3-methyl-1,2,4-oxadiazol-5-yl)pyrimidin-2-yl]amino]-3,4-dihydro-2H-isoquinolin-1-one], the “IL-2, pg/mL stimulated” value in the assay on Jurkat cells (Table E: Jurkat, 1.5 μM of tested compounds) was “C (100 pg/mL≤IL-2<150 pg/mL)”. The pIC50 at recombinant HPK1 protein was more than 7.30.

Take `CCNC(=O)c1cnc(Nc2ccc(S(C)(=O)=O)c(C)c2)nc1N[C@H](CO)c1ccccc1` [Compound 156, N-ethyl-4-{[(1S)-2-hydroxy-1-phenylethyl]amino}-2-{[3-methyl-4-(methylsulfonyl)phenyl]amino}pyrimidine-5-carboxamide]: the “IL-2, pg/mL stimulated” value with Jurkat cells (setting [2]) is listed as “C (25.0 pg/mL≤IL-2<35.0 pg/mL)”. The pIC50 at recombinant HPK1 protein was 6.70 to 7.30.

Consider `CC(C)NC(=O)c1cnc(Nc2ccc(F)c(-c3ccccc3)c2)nc1N[C@H](CO)c1ccccc1` [Compound 293, 2-[(6-fluorobiphenyl-3-yl)amino]-4-{[(1S)-2-hydroxy-1-phenylethyl]-amino}-N-(propan-2-yl)pyrimidine-5-carboxamide], for which the “IL-2, pg/mL stimulated” value with Jurkat cells (setting [2]) is reported as “D (35.0 pg/mL≤IL-2)”. In addition, on recombinant HPK1 protein, the pIC50 is 6.30 to 6.70.

In the case of `CCOC(=O)c1cnc(Nc2ccc(C(=O)NC)c(Cl)c2)nc1N[C@H](CO)c1ccccc1` [Compound 560, Ethyl 2-[3-chloro-4-(methylcarbamoyl)anilino]-4-[[(1S)-2-hydroxy-1-phenyl-ethyl]amino]pyrimidine-5-carboxylate], in the assay with Jurkat cells (setting [1]), the “IL-2, pg/mL stimulated” value is “D (150 pg/mL≤IL-2)”. Moreover, the pIC50 on recombinant HPK1 protein is 6.70 to 7.30.

Turning to `CCOC(=O)c1cnc(Nc2ccc3c(c2)CCNC3=O)nc1N[C@@H](CO)c1ccccc1` [Compound 568, ethyl 4-[[(1R)-2-hydroxy-1-phenyl-ethyl]amino]-2-[(1-oxo-3,4-dihydro-2H-isoquinolin-6-yl)amino]pyrimidine-5-carobxylate], the “IL-2, pg/mL stimulated” value in the assay with Jurkat cells (setting [2]) is “A (IL-2<5.0 pg/mL)”. Besides, the pIC50 at recombinant HPK1 protein was 6.70 to 7.30.

On to `CN1CCc2cc(Nc3ncc(C(=O)NC4CCCC4)c(N[C@H](CO)c4ccccc4)n3)ccc2C1=O` [Compound 389, N-cyclopentyl-4-{[(1S)-2-hydroxy-1-phenylethyl]amino}-2-[(2-methyl-1-oxo-1,2,3,4-tetrahydroisoquinolin-6-yl)amino]pyrimidine-5-carboxamide], for which, in the assay with Jurkat cells (setting [2]), the “IL-2, pg/mL stimulated” value is listed as “C (25.0 pg/mL≤IL-2<35.0 pg/mL)”. The pIC50 on recombinant HPK1 protein was 6.70 to 7.30.

As to `CCOC(=O)c1cnc(Nc2ccc(S(C)(=O)=O)cc2)nc1N[C@H](CO)c1ccccc1` [Compound 68, Ethyl 4-{[(1S)-2-hydroxy-1-phenylethyl]amino}-2-{[4-(methylsulfonyl)-phenyl]amino}pyrimidine-5-carboxylate], in the assay with Jurkat cells (setting [2]), the “IL-2, pg/mL stimulated” value is on record as “D (35.0 pg/mL≤IL-2)”. The pIC50 at recombinant HPK1 protein was more than 7.30.

Turning to `CS(=O)(=O)c1cnc(Nc2ccc3c(c2)CCNC3=O)nc1N[C@H](CO)c1ccccc1` [Compound 564, 6-[[4-[[(1S)-2-hydroxy-1-phenyl-ethyl]amino]-5-methylsulfonyl-pyrimidin-2-yl]amino]-3,4-dihydro-2H-isoquinolin-1-one], the “IL-2, pg/mL stimulated” value with Jurkat cells (setting [2]) is listed as “B (5.0 pg/mL≤IL-2<25.0 pg/mL)”. The negative logarithm of the IC50 (pIC50) on recombinant HPK1 protein was more than 7.30.
